The nature of the data set: Stability (intact fraction) of QS21. Format: physicochemical. The conditions noted are these: same time (74 days), same conditions.

Procedure: QS21 controls were also run. In RP-HPLC analysis, the rgp120 peak elutes before the QS21 peak and, therefore, this method provides simultaneous quantitation of QS21 and rgp120 released from the microspheres.
Microspheres containing QS21, or QS21 with MN rgp120, were incubated in physiological buffer at 37° C. to assess the time for release of the second burst.

As for QS21, the “intact QS21 in solution” value was “less than 25%”.

For the origin of these results see US6913767B1, “Compositions for microencapsulation of antigens for use as vaccines” (priority 1993, dated 2005).
